From patent US20230414619A1 (priority 2020, published 2023)

Tests used:
SARS-CoV-2 = conditions: emetine inhibition of Rps14; pladienolide inhibition of SF3B1; cited from earlier work
[1] = system: PBMCs from a COVID-19 patient; assay type: cell-based, human

| Compound | SARS-CoV-2 replication (SARS-CoV-2) | differentially expressed host factors necessary for SARS-CoV-2 pathogenesis (siRNA and CRISPR screens) [1] | differentially expressed host interactors of SARS-CoV-2 viral RNA [1] | differentially expressed host proteins that interact with SARS-CoV-1/2 and MERS encoded proteins [1] | downregulated proteins following treatment [1] | upregulated proteins following treatment [1] | proteins differentially expressed following treatment ([1]; of 5566 proteins quantified, ANOVA P value<0.05, 0-24 h treatment) | differentially expressed proteins whose turnover is G9a dependent in ET macrophages ([1]; out of 292, 78 upregulated, 74 downregulated) |
| --- | --- | --- | --- | --- | --- | --- | --- | --- |
| CC[C@H](O)[C@@H](C)[C@H]1O[C@@H]1C[C@H](C)/C=C/C=C(\C)[C@H]1OC(=O)C[C@H](O)CC[C@@](C)(O)[C@@H](OC(C)=O)/C=C/[C@@H]1C [pladienolide] | significantly reduced |  |  |  |  |  |  |  |
| COc1cc2c(NC3CCN(C(C)C)CC3)nc(N3CCC(F)(F)CC3)nc2cc1OCCCN1CCCC1 [UNC0642] |  | 8 | 2 | 129 | 151 | 141 | 292 | 152 |
| CC[C@H]1CN2CCc3cc(OC)c(OC)cc3[C@@H]2C[C@@H]1C[C@H]1NCCc2cc(OC)c(OC)cc21 [emetine] | significantly reduced |  |  |  |  |  |  |  |
